In brackets after ≈: the same amount, converted by molar mass.
What was measured:
[1] = test system: J774.2A cells; test: Cytotoxicity assay (MTT); assay type: cell-based; settings: 24 hrs, read-out: IC50 (50% cell death or toxicity)
Description: Details of an assay are as explained in example 2.2.
J774.2A cells (2×10^4/well) were plated and incubated overnight. Next day, cells were treated with various concentrations of MDP-ET (10 fold dilutions with a concentration ranging from 0.005 mg/ml to 0.5 mg/ml & 2 mg/ml) and cultured for 24 hrs. Supernatant was discarded and cells were treated with 100 μl of MTT [3-(4,5-Dimethylthiazol-2-yl)-2,5-Diphenyltetrazolium Bromide] (5 mg/ml) and incubated for 3-4 hrs until formozan crystals were formed. Later, supernatant was discarded and crystals were dissolved with DMSO for 5-10 min. Absorbance was read at 540 nm. FIG. 2 represents cell toxicity effect of MDP-ET. X-axis represents concentration in log scale and Y-axis represents % toxicity.

[2] = test system: rPvRII specific IgG antibody; test: Endpoint titer of rPvRII specific IgG by ELISA after immunization; assay type: in vivo, mouse
[3] = test system: splenocytes; test: Splenocyte proliferation of immunized mice (MTT); assay type: in vivo; settings: LPS and Con A
Description: Spleens were isolated from immunized mice and were processed to single cell suspension. 96 well flat bottom Micro titer plates were seeded with 1×10^5 cells/well with RPMI1640 media. Cells were treated with OVA. Con A (2 μg/mL) and LPS (10 μg/mL) or medium with a final volume of 200 μl. Plates were incubated at 37° C. with 5% CO2 in an incubator. After 48 h of incubation 20 μl of Triazolyl blue Tetrazolium Bromide (MTT) solution was added to each well, incubated for next 4 h. Untransformed MTT was removed from each well by aspirating the supernatant (180 μL) and replaced with DMSO. The absorbance was read at 570 nm after 15 min.
Immunostimulating substances act through specific (antigen-dependent) T lymphocytes, B lymphocytes, and dendritic cells and also through non-specific mechanisms of action (antigen-independent) that involves granulocytes, macrophages, and NK cells. Being a secondary lymphoid organ, spleen contains a heterogeneous population of lymphocytes to examine the immunostimulant activity. However, proliferations of immune cells like T and B cells are the benchmark for immune potentiation. Mice were immunized with or without OVA or in combination with MDP and MDP-ET. Type of immune response in all treated groups was measured with LPS and Con-A splenocyte proliferation assays depicted in Figure: 3. […] This is essential for B cell expansion.

[4] = target: T1, human NOD2 (Homo sapiens, UniProt Q9HC29); test: NOD2 specific reporter assay (SEAP, Quanti blue); assay type: cell-based; settings: HEK-Blue Human NOD2 reporter cells, 24-72 hrs, read-out: EC50 (half maximal response) (converted)
T1 construct: host or cells: HEK-Blue Human NOD2 reporter cells (HEK 293)
T1 sequence (Q9HC29 whole entry): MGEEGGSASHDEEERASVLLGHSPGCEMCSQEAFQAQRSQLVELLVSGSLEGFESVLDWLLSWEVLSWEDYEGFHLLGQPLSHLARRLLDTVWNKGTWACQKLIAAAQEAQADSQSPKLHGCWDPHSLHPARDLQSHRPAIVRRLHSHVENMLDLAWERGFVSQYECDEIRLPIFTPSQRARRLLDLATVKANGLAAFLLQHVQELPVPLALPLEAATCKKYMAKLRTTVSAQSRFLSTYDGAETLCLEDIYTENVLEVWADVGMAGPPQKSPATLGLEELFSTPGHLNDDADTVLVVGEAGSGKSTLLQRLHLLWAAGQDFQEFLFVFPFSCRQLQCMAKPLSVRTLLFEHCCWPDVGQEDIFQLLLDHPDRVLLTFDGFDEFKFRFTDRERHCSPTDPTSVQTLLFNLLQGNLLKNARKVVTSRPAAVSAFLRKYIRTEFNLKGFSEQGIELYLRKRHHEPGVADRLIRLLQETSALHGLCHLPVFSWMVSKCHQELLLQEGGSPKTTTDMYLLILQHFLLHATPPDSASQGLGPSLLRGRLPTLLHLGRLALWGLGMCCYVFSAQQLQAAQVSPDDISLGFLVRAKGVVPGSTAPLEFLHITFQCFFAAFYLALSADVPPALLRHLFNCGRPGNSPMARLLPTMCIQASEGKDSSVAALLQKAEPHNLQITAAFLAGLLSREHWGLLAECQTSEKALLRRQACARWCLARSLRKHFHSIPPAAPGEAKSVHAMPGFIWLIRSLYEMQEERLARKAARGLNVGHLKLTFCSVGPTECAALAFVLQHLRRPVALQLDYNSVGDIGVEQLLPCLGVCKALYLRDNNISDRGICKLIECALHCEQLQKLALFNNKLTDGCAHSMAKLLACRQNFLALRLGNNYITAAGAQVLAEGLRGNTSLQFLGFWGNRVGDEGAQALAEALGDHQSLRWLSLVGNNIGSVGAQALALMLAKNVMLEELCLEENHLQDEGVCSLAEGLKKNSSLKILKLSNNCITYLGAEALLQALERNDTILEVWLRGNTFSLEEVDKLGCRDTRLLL
Description: Muramyl dipeptide molecules have the ability to bind to NOD2 receptors that are present on the surface of the immune cells, so as to stimulate immune response. NOD2 (Nucleotide oligomerization domain) receptor is an intracellular pattern recognition receptor (PRRs) recognizes muramyl dipeptide derivatives and stimulates cascade of signaling pathways to induce immune response. […] These cells were prepared by co-transfection of human NOD2 gene and codon-optimized SEAP (secreted embryonic alkaline phosphatase) reporter gene into HEK 293 cells. Upon stimulation of cells with muramyl dipeptide derivative, NFkB gets activated, which inturn secrets SEAP and it was measured in cell supernatant. Experimental details of this in-vitro assay are given as example 2.1.
HEK—Blue Human NOD2 reporter cells (5×10^4/well) were plated and cultured overnight in a humidified CO2 incubator at 37° C. Next day, cells were treated with various concentrations of MDP-ET, (0.001 mg/ml to 1 mg/ml) and cultured for 24-72 hrs. Supernatant was collected and treated with Quanti blue detection reagent at 37° C. for 15-30 min. Absorbance was read at 630 nm. […] To generate dose response curve, highest absorbance shown at tested concentration was taken as 100% response and the least absorbance was taken as 0% response. […]

[5] = test system: IgG isotypes (IgG1, IgG2a & IgG3) raised against HBsAg; test: TH1:TH2 index from HBsAg specific IgG isotypes; assay type: in vivo, BALB/c mice; settings: HBsAg in the presence of MDP-ET (10 & 50 μg/mouse)
Source text: It is known that IgG subclasses produced after the immunization against given antigen, primarily determines the function of the antibody or indirectly measures the relative contribution of TH1 versus TH2 type cytokine induction. More specifically, production of IgG1 antibodies induces TH2 type cytokines, whereas production of IgG2a & IgG3 antibodies induces TH1 type cytokines. […] In this context, in the present invention, we determined the levels of IgG isotypes (IgG1, IgG2a & IgG3), raised against HBsAg in the presence or absence of MDP-ET (at 10 μg/mouse & 50 μg/mouse) and calculated TH1:TH2 index then calculated as ([IgG2a+IgG3]/2)/(IgG1). Details of assay protocol as described below as in example 3.1.3. According to such calculation, an index value less than 1 stands for a TH2 polarization; an index value greater than 1 stands for a TH1 polarization.
Analysis of antigen specific IgG antibody subclasses (isotypes namely IgG1 or IgG2a or IgG3) was performed as mentioned in example 3.1.2, except at one step, where goat anti-mouse IgG1 or IgG2a or IgG3 HRP was used at a dilution of 1:5000 (in place of goat anti-mouse IgG) TH1:TH2 index obtained at 10 & 50 μg/mouse of MDP-ET is as shown in FIG. 5c.

[6] = test system: Total IgG1 and IgG2a antibodies; test: Total IgG1 and IgG2a in sera of OVA-immunized mice (sandwich ELISA); assay type: in vivo, BALB/c mice
Description: Male BALB/c mice were immunized subcutaneously with OVA 100 μg alone or with OVA 100 μg dissolved in saline containing the MDP or MDP-ET analogues (7.5, 15 or 30 μg) on Days 1 and 15. Sera were collected 2 weeks after the last immunization. Total IgG1 and IgG2a antibodies in the sera were measured by Sandwich ELISA.
Measurement of total IgG subtypes such as IgG1 and IgG2a are useful to assess type immunity produced. In mice, IgG1 is integrated with Th2-type response, while Th1-type response is integrated with the production of IgG2a, IgG2b, and IgG3 antibodies. Antibody subclass is indispensable for complement fixation and provides protection. IgG2a and IgG2b can fix the complement stronger than IgG1. Vaccine adjuvants showing broad subclass distribution is beneficial against pathogens. […] But, it didn't induce much significant IgG1 response i.e., Th2 type, than MDP+OVA group.

[7] = test system: Wistar rats; test: Maximum Tolerated Dose test; assay type: in vivo
Description: This particular beneficial property was evidenced by Maximum Tolerated Dose test done using rat as an animal model.
Maximum Tolerated Dose test: Wistar rats (n=6, 3M & 3F) were administered intramuscularly (i.m) with MDP-ET containing fixed adjuvant dose of 10, 50 and 100 μg/animal/200 μl in an ascending manner. Animals were observed daily for a period of 14 days for clinical signs & mortality. Body weight was measured daily. Food and water consumed by animals were also monitored daily for any abnormalities & food and water intake per animal was also calculated. Body temperature was measured for every 4 hours up to 24 hrs, later once in daily up to 7 days and then followed by alternate day up to day 14. Rats were sacrificed on day 14 and organs/tissues such as site of injection, spleen, thymus, brain, lungs, Heart, liver, Kidney were collected and done macroscopic examination. […] It indicates rats are tolerable even at high dose (100 μg/animal). Blood was collected between 24-36 hrs were tested for CRP levels, after the injection. Higher (600-1000 μg/ml, normal range 200-550 μg/ml in rats) CRP levels were found at higher dose (100 μg/animal).
However, due to moderate or high levels of IL-6 levels as found in In-vitro pyrogenicity test, it can be concluded that MDP-ET may be pyrogenic at tested high concentration (100 μg/animal), which in turn correlated with high levels of CRP found immediately after giving dose.

[8] = test system: HBsAg specific IgG antibody; test: Endpoint titer of HBsAg specific total IgG by ELISA after immunization; assay type: in vivo, BALB/c mice; settings: for HBsAg specific IgG antibody endpoint titer: i.m. Day 0 & 28, Day 42 sera
Description: Female BALB/c mice (6-8 week old, n=6/group) were vaccinated intramuscularly (i.m, at two quadriceps) on Day 0 & Day 28 with vehicle control or Hepatitis B antigen (20 μg/mouse/dose/100 μl, 50 μl per quadricep) with and without MDP-ET (10 μg or 50 μg/mouse/dose/100 μl) diluted in Phosphate buffered saline. Prior to immunization, Hepatitis B surface antigen was mixed with MDP-ET, by gentle agitation (1:1 ratio), under sterile conditions. Mice were bled and euthanized on Day 42. Blood was collected & serum was isolated to evaluate analyze antigen specific total IgG antibody titer (as in example 3.1.2) and antibody subclasses (isotypes namely IgG1 or IgG2a or IgG3, as in example 3.1.3).
Serial dilutions of individual serum samples ([…] ranging from 1:50 to 819200) were used to determine the endpoint titer of antigen specific total IgG antibody titer by ELISA. Details of assay protocol as described below, For analysis of antigen specific antibody titer, hepatitis B surface antigen was suspended in 50 mM carbonate bicarbonate buffer, pH 9.6 and coated at a concentration (lug/ml, 100 μl/well) in 96 well plates and kept at 4° C. for overnight. Next day, plates were washed with washing buffer (PBST-Phosphate buffered saline, pH 7.4 with 0.05% Tween) and blocked with blocking buffer (PBS with 1% BSA) at RT for 1-2 hr. ELISA plates were washed again with wash buffer (PBS, 0.1% Tween™20) and added serially diluted (in PBS, 0.1% BSA, 0.05% Tween™20, 0.02% sodium azide) sera from hyper immunized mice and incubated at RT for 1 hr. After incubation, wells were again washed and added Goat Anti-mouse IgG HRP conjugate antibody at a dilution of 1:5000 & incubated for 1 hr at RT. Later, wells were washed, and developed with OPD (O-phenylene diamine) as a substrate for 15 min. Reaction was stopped using 2N H2SO4. Absorbance was read at 490 nm. Threshold (Mean+3SD) was established by taking the absorbance of negative control (PBS) group, followed by the reactive index (ratio of absorbance at a particular dilution & threshold), so as to determine end point titer. Based on this calculation, highest dilution at which reactive index value[…] was considered as endpoint antibody titer dilution. Antigen specific antibody endpoint titer in the presence & absence of MDP-ET was represented as in FIG. 5a.

[9] = test system: OVA-specific IgG antibodies; test: OVA-specific IgG in sera of immunized mice (indirect ELISA); assay type: in vivo, BALB/c mice; settings: OVA 100 μg alone, s.c. Days 1 and 15, sera 2 weeks after last immunization
Description: Male BALB/c mice were immunized subcutaneously with OVA 100 μg alone or with OVA 100 μg dissolved in saline containing analogues (7.5, 15 or 30 μg) on Days 1 and 15. Sera were collected 2 weeks after the last immunization. OVA-specific IgG antibodies in the sera were measured by an Indirect ELISA.

Molecule: CCOC(=O)N[C@H]1C(O)O[C@H](CO)[C@@H](O)[C@@H]1O[C@H](C)C(=O)N[C@@H](C)C(=O)N[C@H](CCC(=O)O)C(N)=O (stereo partly drawn) [MDP-ET, (4R)-5-amino-4-((2S)-2-((2R)-2-(((3R,4R,5S,6R)-3-((ethoxycarbonyl)amino)-2,5-dihydroxy-6-(hydroxymethyl)tetrahydro-2H-pyran-4-yl)oxy)propanamido)propanamido)-5-oxopentanoic acid]
- IC50 [1]: 410 µg/mL (≈ 785 µM)
- increase of rPvRII specific IgG antibody titer versus rPvRII alone ([2]; MDP-ET 10 μg/mouse): 4 fold
- rPvRII specific IgG antibody endpoint titer ([2]; MDP-ET 10 μg/mouse + rPvRII): 51200 dilution
- Splenocyte proliferation [3]: inducing the LPS mediated splenocyte proliferation
- EC50 [4]: 421 nM
- TH1:TH2 index ([IgG2a+IgG3]/2)/(IgG1) [5]: 10
- Th1:Th2 index from antibody titer of ova specific IgG subclasses ([6]; OVA-immunized mice): 1
- CRP levels ([7]; 100 μg/animal, blood 24-36 hrs after injection, normal range 200-550 μg/ml in rats): 600 to 1000 µg/mL
- tolerated dose ([7]; Wistar rats, i.m., 14 days observation): ≥ 100 μg/rat
- CRP levels ([7]; after 14 days): normal
- macroscopic examination of organs/tissues ([7]; day 14, site of injection, spleen, thymus, brain, lungs, heart, liver, kidney): No significant lesions or abnormalities
- clinical signs ([7]; even at tested high dose (100 μg/animal), 14 days): no significant clinical signs
- weight gain ([7]; high dose (100 μg/animal), compared to untreated animals): weight gain is less
- mortality ([7]; i.m. 10, 50 and 100 μg/animal, 14 days): no mortality
- body temperature ([7]; up to 14 days): no temperature raise
- increase of HBsAg specific IgG antibody titer versus HBsAg alone ([8]; MDP-ET 10 μg/mouse): 4 fold
- HBsAg specific IgG antibody endpoint titer ([8]; MDP-ET 10 μg/mouse + HBsAg 20 μg): 51200 dilution
- increase of HBsAg specific IgG antibody titer versus HBsAg alone ([8]; MDP-ET 50 μg/mouse): 8 fold
- HBsAg specific IgG antibody endpoint titer ([8]; MDP-ET 50 μg/mouse + HBsAg 20 μg): 204800 dilution
- increase of humoral response (TH2), dose dependent ([8]; mice vaccinated with HBsAg in the presence of MDP-ET (10 and 50 μg/mouse)): 4-8 fold

B1: OVA: Ovalbumin (OVA) antigen, given alone (protein, UniProt P01012 2-386, looked up)
Ovalbumin: GSIGAASMEFCFDVFKELKVHHANENIFYCPIAIMSALAMVYLGAKDSTRTQINKVVRFDKLPGFGDSIEAQCGTSVNVHSSLRDILNQITKPNDVYSFSLASRLYAEERYPILPEYLQCVKELYRGGLEPINFQTAADQARELINSWVESQTNGIIRNVLQPSSVDSQTAMVLVNAIVFKGLWEKAFKDEDTQAMPFRVTEQESKPVQMMYQIGLFRVASMASEKMKILELPFASGTMSMLVLLPDEVSGLEQLESIINFEKLTEWTSSNVMEERKIKVYLPRMKMEEKYNLTSVLMAMGITDVFSSSANLSGISSAESLKISQAVHAAHAEINEAGREVVGSAEAGVDAASVSEEFRADHPFLFCIKHIATNAVLFFGRCVSP
- Log(2) Total IgG1 Antibody Titre ([6]; OVA 100 μg alone): 14.39
- Log(2) Total IgG2a Antibody Titre ([6]; OVA 100 μg alone): 11.89
- Log(2) IgG Antibody Titre [9]: 12.64
